Each structure is given as a SMILES string.

For this series, the system named is HeLa rtTA HIV∆Mls cells. Briefly: Trypan blue exclusion, HeLa. The format is cell-based. Particulars: up to 10 µM. On the procedure: Effects of compound treatment on cellular metabolism was assessed by an XTT-based in vitro toxicology assay kit (Sigma-Aldrich) or Trypan blue exclusion (Life Technologies) as proxy for degree of cytotoxicity and expressed relative to DMSO control treatment. For measurement of cell viability using XTT, culture media was removed after 24, 72, and 96 h of compound treatment, replaced with 20% XTT solution and incubated at 37 °C in a 5% CO2 humidified incubator for 2–6 h, and relative cell viability was measured in compound treated cells relative to DMSO-treated cells. Cell viability measurements in CEM-GXR cells are described above.

On to `O=C(NC(=S)NNC(=O)c1ccccc1O)c1ccc(-c2ccccc2)cc1` [Compound 833, N-([2-(2-hydroxybenzoyl)hydrazino]carbonothioyl}-4-biphenylcarboxamide], for which the Trypan blue exclusion result is reported as “no change”.

Values taken from PMC5267425, “Identification of small molecule modulators of HIV-1 Tat and Rev protein accumulation” (Retrovirology, 2017).
